From patent US12344610B2, “APOL1 inhibitors and methods of use” (Maze Therapeutics, Inc., priority 2022, dated 2025)

System: human immortalized podocytes inducibly expressing APOL1 G2
Assay: APOL1 G2 podocyte cell rescue assay (Example B4)
Assay type: cell-based
Settings: Homo sapiens, differentiated human podocytes, doxycycline-induced APOL1 G2, CellTiter-Glo; geometric mean of at least 2 runs; † = single run
Experimental: APOL1 G2 human immortalized podocyte viability assay for measurement of cytotoxicity reversal by compound (APOL1 G2 podocyte cell rescue assay).
Cell Handling. The hTERT-immortalized kidney podocyte cell line was procured from the laboratory of Dr. Moin Saleem at the University of Bristol, UK (Nephrology 17 (2012) 525-531; doi:10.1111/j.1440-1797.2012.01619.x; herein incorporated by reference in its entirety). Parental and engineered cell lines were cultured in RPMI 1640 media (Gibco, 11875093) with 10% Tet System Approved FBS (Takara, 631101). The engineered cell line was maintained under selection (2.5 μg/mL puromycin). Cell lines were maintained and engineered at 33° C. Cell cultures were transferred to 37° C. for 10 to 14 days to initiate differentiation (Nephrology 17 (2012) 525-531; doi:10.1111/j.1440-1797.2012.01619.x; herein incorporated by reference in its entirety). During this time, media was refreshed every 3 days. After differentiation, cells engineered to inducibly express APOL1 G2 were used in the podocyte cell rescue assay.
Cell Line Engineering. The APOL1 G2 coding sequence was cloned into the pLVX-TetOne-Puro vector and verified by sequencing (Genscript Biotech). This construct was designed to have a C-terminal HiBiT tag. Lentiviral packaging of the vector was conducted using the Lenti-X Packaging Single Shots (VSVG) system according to manufacturer instructions (Takara Bio, 631275). A stable cell line was generated by transfecting the parental podocyte cell line with the concentrated virus in media with 5 μg/mL polybrene (Sigma, TR-1003-G). Media was changed the following day. 72 hours post transfection, 2.5 μg/mL puromycin (Gibco, A1113803) was added to the cells and cells were maintained in selection media thereafter. This APOL1 G2 stable cellular pool was subjected to a stringent limiting dilution to generate a pure stable clone (Podocyte/pLVX-TetOne APOL1 G2/clone D10) capable of inducible expression of APOL1 G2.
Assay Setup. T175 flasks containing differentiated podocytes engineered to inducibly express APOL1 G2 (Podocyte/pLVX-TetOne APOL1 G2/clone D10) were washed once with 15 mL of DPBS (Thermo Fisher, 14190-144). These flasks were each trypsinized with 3 mL of prewarmed TrypLE Express (Gibco, 12605-010) and incubated at 37° C. with 5% CO2 until cells detached and neutralized with 7 mL of prewarmed assay media (RPMI 1640 media with 10% Tet System Approved FBS, no selection agent). Cells were pooled and the resulting suspension was gently mixed. The cell suspension was counted using a Countess Cell Counting Chamber (Invitrogen) and the cell concentration was adjusted to 240,000 cells/mL using assay media. Next, 25 μL of a 480 ng/mL working stock of doxycycline diluted in assay media was added to an assay ready plate. All experiments were performed in 384-well, white, solid bottom, tissue culture treated plates (Greiner, 781080). The assay ready compound plates were generated with duplicate 8-point compound dilution series that consisted of 3-fold stepwise dilutions (0.4% DMSO final). The plates were centrifuged at 1000 rpm for 1 minute. 25 μL of diluted cell suspension (final cell density=6,000 cells/well) was added to each well. The plates were centrifuged again at 1000 rpm for 1 minute and then incubated in a humidified incubator (37° C. with 5% CO2). After 95 hours, the assay plates were removed from the incubator and allowed to equilibrate to room temperature for 1 hour. CellTiter-Glo® reagent (Promega, G7570) was prepared according to the manufacturer's instructions. 25 μL of CellTiter-Glo® reagent was added to each well. Assay plates were sealed with foil and mixed for 5 minutes on an orbital shaker (500 rpm) to induce cell lysis. Plates were centrifuged at 1000 rpm for 1 minute. 10 minutes after CellTiter-Glo® reagent addition, an Envision plate reader (Perkin Elmer) was used to measure the luminescent signal of each assay plate. Collaborative Drug Discovery software was utilized for graphing data. […]

## CN(c1c(F)cc(OCCN2CCC3(CC2)C(=O)Nc2ccc(Cl)cc23)cc1F)S(C)(=O)=O [Compound 127, N-[4-(2-{5-chloro-2-oxo-1,2-dihydrospiro[indole-3,4′-piperidin]-1′-yl}ethoxy)-2,6-difluorophenyl]-N-methylmethanesulfonamide]
  EC50: 5.39 nM
